Test results reported in EP1774974A1, “Use of hyperforin or St. John's Wort in the treatment and prevention of metabolic syndrome” (Roots, Ivar, priority 2005, dated 2007).

Legend:
HepG2 cells [1] = test: Affymetrix HG U95Av2 microarray gene expression analysis; format: cell-based, human; conditions: 1 µM hyperforin, 24 h
Protocol: (§1) HepG2 cells (human hepatocellular carcinoma, German Collection of Microorganisms and Cell Cultures, DSMZ, Braunschweig, Germany) were grown in Dulbecco's Modified Eagle Medium containing 1 g/l D-glucose and 5% fetal bovine serum with 5% CO2 at 37°C. Cells were seeded in 6-well dishes and grown to confluence. Content of 1 Esbericum™ capsule (total hypericin […], Schaper & Bruemmer, Salzgitter, Germany) was extracted with 1 ml ethanol. Cells were treated with either this extract (final concentration 0.1% (v/v)), or 1 µM hyperforin (Calbiochem, Schwalbach, Germany), or 0.1 % ethanol (controls) for 24 h. Three independent experiments were performed.
(§2) Cells were washed twice with phosphate buffered saline, harvested in lysis buffer (Qiagen, Hilden, Germany) with a rubber-policeman and homogenised by centrifugation through a Qiashredder (Qiagen, Hilden, Germany). Preparation of total RNA was performed using a Qiagen RNeasy Mini Kit according to the manufacturer's instructions. RNA concentration was determined photometrically (Uvicon photometer, Kontron). RNA was either used immediately for cDNA synthesis or stored at -80°C.
Expression analysis was performed with Affymetrix HG U95Av2 microarray (Affymetrix, Santa Clara, CA). Synthesis of biotin-labelled cRNA and hybridisation were carried out following the Affymetrix protocol. Results were exported to Excei for analysis.

HepG2 cells [2] = test: Real-time RT-PCR gene expression analysis; format: cell-based, human; conditions: 1 µM hyperforin, 24 h, vs. control, geometric mean of three experiments
Protocol: as §1, §2
5 µg RNA was reverse transcribed in a total volume of 20 µl containing 200 U SuperScript™ II RT and 1x reaction buffer (Invitrogen, Karlsruhe, Germany), 500 ng pd(T)12-18 (Amersham Pharmacia Biotech, Freiburg, Germany) and 125 pmol/µl of each dNTP at 42°C for 1 h. Real-time PCR was performed with QuantiTect™ SYBR® Green PCR Kit (Qiagen, Hilden, Germany) according to the manufacturer's instructions. The reaction was carried out in a LightCycler (Roche, Mannheim, Germany), version 5.32, and analysed using the Second Derivative Maximum method.

[3] = vs. control, geometric mean of three experiments

## Hyperforin
HepG2 cells [1]
  differentially regulated sequences that were upregulated: 120 sequences
  sequences identified as differentially regulated (p<0.05): 201 sequences
HepG2 cells [1]; [3]
  Fold change of ALDOA transcript, Array: 1.41
  Fold change of ENO2 transcript, Array: 2.75
  Fold change of FDPS transcript, Array: 0.53
  Fold change of IGFBP3 transcript, Array: 8.79
  Fold change of LDHA transcript, Array: 1.36
  Fold change of LDHB transcript, Array: 1.42
  Fold change of MVD transcript, Array: 0.26
  Fold change of PCK2 transcript, Array: 0.43
  Fold change of PFKFB3 transcript, Array: 1.83
  Fold change of PGK1 transcript, Array: 1.50
  Fold change of PKM2 transcript, Array: 1.40
  Fold change of SLC2A1 transcript, Array: 1.74
  Fold change of SLC2A3 transcript, Array: 3.57
  Fold change of SLC25A8 / UCP2 transcript, Array: 0.54
  Fold change of TM7SF2 transcript, Array: 0.52
HepG2 cells [2]
  Fold change of ALDOA transcript, RT-PCR: 1.42
  Fold change of FDPS transcript, RT-PCR: 0.49
  Fold change of IGFBP3 transcript, RT-PCR: 8.29
  Fold change of MVD transcript, RT-PCR: 0.56
  Fold change of PCK2 transcript, RT-PCR: 0.49
  Fold change of SLC2A1 transcript, RT-PCR: 1.90
  Fold change of SLC2A3 transcript, RT-PCR: 2.84
